Data as given in patent US20260174778A1, “SULFONAMIDE COMPOUND, AND PREPARATION METHOD THEREFOR AND USE THEREOF” (SHANGHAI HENLIUS BIOTECH, INC., priority 2023, published 2026).

System: breast cancer cell line ZR-75-1
Assay: Inhibition of proliferation of breast cancer cell line ZR-75-1 (CellTiter-Glo)
Assay type: cell-based
Settings: Homo sapiens, 240 h, proliferation of ZR-75-1 cells, 10 days of incubation, read-out: IC50 (KAT6A)
Text: Test Example 1: Experiment for Determining Inhibitory Effects of Compounds on Proliferation of Breast Cancer Cell Line ZR-75-1
ATP is an indicator of the metabolism of living cells. The CellTiter-Glo® Luminescent Cell Viability Assay is a homogeneous assay method for determining the number of viable cells by quantifying ATP.
• 1) ZR-75-1 (Cell Bank of Chinese Academy of Sciences, TCHul26) • 2) RPMI-1640 medium (Gibco, 11875-093) • 3) Fetal Bovine Serum, New Zealand (Gibco,10091-148) • 4) Penicillin-streptomycin (10,000 U/mL) (Gibco, 15140-122) • 5) Trypsin-EDTA (0.25%), containing phenol red (Gibco, 25200-072) • 6) DPBS (Shanghai BasalMedia, B210KJ) • 7) Corning® 96-well Clear Flat Bottom Ultra-Low Attachment Microplate (Corning, Cat. No. 3474) • 8) 330 μL 96 Holes Deep Well Plate, transparents, 96 Round Holes, V-shaped Bottom, Low Retention (Stellar Scientific, DP33VR-9-NS) • 9) Corning® 96-well solid white flat-bottom polystyrene microplate (Corning, Cat. No. 3917) • 10) CellTiter-Glo® Luminescent Cell Viability Assay (Promega, G7573) • 11) Countstar® BioMed automatic cell counter • 12) Trypan blue solution, 0.4% (Gibco, Cat. No. 15250061) • 13) 37° C. constant-temperature incubator (Thermo, FORMA STERI-CYCLE i160 LK) • 14) Biosafety cabinet (Thermo, 1379)
• 1) The formula of the complete medium for ZR-75-1 was as follows: 500 mL RPMI-1640+10% FBS+1% penicillin-streptomycin. • 2) Thirty minutes before cell plating, the complete medium, serum, trypsin, and DPBS for use in ZR-75-1 cell culture were pre-warmed in a water bath at 37° C. • 3) The ZR-75-1 cells were taken out of the incubator, and the medium was removed by pipetting. The cells were rinsed once with 5 mL of DPBS, and then the DPBS was discarded. • 4) The cells in the T75 culture flask were digested with 1-3 mL of (0.25%) trypsin-EDTA. After the trypsin was added, the culture flask was incubated in an incubator at 37° C. for 2-5 min, and dispersion was confirmed by microscopic examination. Tapping or agitating the culture flask was avoided to prevent disturbing the cells, which might cause cell clumping. • 5) 9 mL of the complete medium was added to terminate the digestion, thus forming a cell suspension, which was then mixed well by pipetting. • 6) Cell suspension counting: 20 μL of the cell suspension was pipetted and diluted with 20 µL of the 0.4% trypan blue solution (Gibco, Cat. No. 15250061). The total cell count and the percentage of cell viability were determined using the Countstar® BioMed automatic cell counter. Only cells with a cell viability of no less than 95% were used for the experiment. • 7) The concentration of the cell suspension was adjusted to 2000 cells/well, and the cell suspension was added to a 96-well cell culture plate at 80 μL/well. Treatment of Cells with Compounds • 1) Twenty-four hours after cell plating, the cell plate was taken out. • 2) Each compound was prepared with a complete medium. The stock solution was a 10 mM solution in DMSO, which was first diluted with the medium to 100 μM, then diluted to 1 μM, and finally subjected to a 5-fold serial dilution across a total of 9 concentration gradients. • 3) 20 μL of the compound diluted with the medium was added to each well of the cell culture plate, which already contained 80 μL of the medium. The final concentration started at 200 nM, followed by a 5-fold serial dilution across a total of 9 concentration gradients. Two replicate wells were set for each compound, and each plate could be used to test 3 compounds, with the DMSO content controlled within 0.5%. • 4) The culture medium was replenished once every three days with a complete medium containing the same concentration of the test compound, with 20 μL/well added each time.
After 10 days of incubation with the compound, the cell culture plate was taken out, and the CellTiter-Glo® reagent was added at 50 μL/well. […]

| Structure (SMILES) | IC50 [nM] |
| --- | --- |
| COc1ccc2c(c1S(=O)(=O)Nc1noc3cc(Cn4cccn4)cc(OC)c13)OCCC21CCCC1 [Compound 26, N-(6-((1H-Pyrazol-1-yl)methyl)-4-methoxybenzo[d]isoxazol-3-yl)-7-methoxyspiro[chromane-4,1′-cyclopentane]-8-sulfonamide] | < 0.5 |
| COc1ccc2c(c1S(=O)(=O)Nc1noc3cc(Cn4cccn4)c(Cl)c(OC)c13)OCCC2(C)C [Compound 29, N-(6-((1H-Pyrazol-1-yl)methyl)-5-chloro-4-methoxybenzo[d]isoxazol-3-yl)-7-methoxy-4,4-dimethylchromane-8-sulfonamide] | 10 to 50 |
| COc1ccc2c(c1S(=O)(=O)Nc1noc3cc(Cn4cccn4)cc(Cl)c13)OCCC2(C)C [Compound 33, N-(6-((1H-Pyrazol-1-yl)methyl)-4-chlorobenzo[d]isoxazol-3-yl)-7-methoxy-4,4-dimethylchromane-8-sulfonamide] | 0.5 to 2 |
| COc1ccc2c(c1S(=O)(=O)Nc1noc3cc(Cn4cccn4)cc(OC)c13)OCCC21CC1 [Compound 35, N-(6-((1H-Pyrazol-1-yl)methyl)-4-methoxybenzo[d]isoxazol-3-yl)-7-methoxyspiro[chromane-4,1′-cyclopropane]-8-sulfonamide] | < 0.5 |
| COc1ccc2c(c1S(=O)(=O)Nc1noc3cc(Cn4cccn4)cc(OC)c13)OCCC2O (centres unmarked) [Compound 36, N-(6-((1H-Pyrazol-1-yl)methyl)-4-methoxybenzo[d]isoxazol-3-yl)-4-hydroxy-7-methoxychromane-8-sulfonamide] | < 0.5 |
| COc1ccc2c(c1S(=O)(=O)Nc1noc3cc(Cn4cccn4)cc(OC)c13)OCCC2=O [Compound 37, N-(6-((1H-Pyrazol-1-yl)methyl)-4-methoxybenzo[d]isoxazol-3-yl)-7-methoxy-4-oxochromane-8-sulfonamide] | < 0.5 |
| COc1ccc2c(c1S(=O)(=O)Nc1noc3cc(Cn4cccn4)cc(OC)c13)OCCC2(C)O (centres unmarked) [Compound 38, N-(6-((1H-Pyrazol-1-yl)methyl)-4-methoxybenzo[d]isoxazol-3-yl)-4-hydroxy-7-methoxy-4-methylchromane-8-sulfonamide] | < 0.5 |
| COc1ccc2c(c1S(=O)(=O)Nc1noc3cc(Cn4cccn4)cc(OC)c13)OCCC21SCCS1 [Compound 39, N-(6-((1H-Pyrazol-1-yl)methyl)-4-methoxybenzo[d]isoxazol-3-yl)-7-methoxyspiro[chromane-4,2′-[1,3]dithiolane]-8-sulfonamide] | < 0.5 |
| COc1ccc2c(c1S(=O)(=O)Nc1noc3cc(Cn4cccn4)cc(OC)c13)OCCN2C [Compound 41, N-(6-((1H-Pyrazol-1-yl)methyl)-4-methoxybenzo[d]isoxazol-3-yl)-7-methoxy-4-methyl-3,4-dihydro-2H-benzo[b][1,4]oxazine-8-sulfonamide] | 0.5 to 2 |
| COc1ccc2c(c1S(=O)(=O)Nc1noc3cc(Cn4cccn4)c(F)c(OC)c13)OCCC21SCCS1 [Compound 44, N-(6-((1H-Pyrazol-1-yl)methyl)-5-fluoro-4-methoxybenzo[d]isoxazol-3-yl)-7-methoxyspiro[chromane-4,2′-[1,3]dithiolane]-8-sulfonamide] | < 0.5 |
| COc1ccc2c(c1S(=O)(=O)Nc1noc3cc(Cn4cccn4)cc(Cl)c13)OCCC2=O [Compound 45, N-(6-((1H-Pyrazol-1-yl)methyl)-4-chlorobenzo[d]isoxazol-3-yl)-7-methoxy-4-oxochromane-8-sulfonamide] | 2 to 10 |
| COc1ccc2c(c1S(=O)(=O)Nc1noc3cc(Cn4cccn4)cc(Cl)c13)OCCC21CC1 [Compound 46, N-(6-((1H-Pyrazol-1-yl)methyl)-4-chlorobenzo[d]isoxazol-3-yl)-7-methoxyspiro[chromane-4,1′-cyclopropane]-8-sulfonamide] | 2 to 10 |
| COc1ccc2c(c1S(=O)(=O)Nc1noc3cc(Cn4cccn4)cc(Cl)c13)OCCC21SCCS1 [Compound 47, N-(6-((1H-Pyrazol-1-yl)methyl)-4-chlorobenzo[d]isoxazol-3-yl)-7-methoxyspiro[chromane-4,2′-[1,3]dithiolane]-8-sulfonamide] | 0.5 to 2 |
| COc1ccc2c(c1S(=O)(=O)Nc1noc3cc(Cn4cccn4)c(Cl)c(OC)c13)OCCC21CC1 [Compound 52, N-(6-((1H-Pyrazol-1-yl)methyl)-5-chloro-4-methoxybenzo[d]isoxazol-3-yl)-7-methoxyspiro[chromane-4,1′-cyclopropane]-8-sulfonamide] | ≥ 50 |
| COc1cccc(OC)c1S(=O)(=O)Nc1nnc2cc(Cn3cccn3)cc(OC)n12 [Compound 58, N-(7-((1H-Pyrazol-1-yl)methyl)-5-methoxy-[1,2,4]triazolo[4,3-a]pyridin-3-yl)-2,6-dimethoxybenzenesulfonamide] | ≥ 50 |

Second part, the compound after the results:

| IC50 [nM] | Structure (SMILES) |
| --- | --- |
| < 0.5 | COc1ccc2c(c1S(=O)(=O)Nc1noc3cc(Cn4cccn4)c(F)c(OC)c13)OCCC2(C)C [Compound 27, N-(6-((1H-Pyrazol-1-yl)methyl)-5-fluoro-4-methoxybenzo[d]isoxazol-3-yl)-7-methoxy-4,4-dimethylchromane-8-sulfonamide] |
| 10 to 50 | COc1ccc2c(c1S(=O)(=O)Nc1noc3cc(Cn4cccn4)c(Cl)c(OC)c13)OCCO2 [Compound 30, N-(6-((1H-Pyrazol-1-yl)methyl)-5-chloro-4-methoxybenzo[d]isoxazol-3-yl)-6-methoxy-2,3-dihydrobenzo[b][1,4]dioxine-5-sulfonamide] |
| 0.5 to 2 | COc1ccc2c(c1S(=O)(=O)Nc1noc3cc(Cn4cccn4)c(F)c(Cl)c13)OCCC2(C)C [Compound 31, N-(6-((1H-Pyrazol-1-yl)methyl)-4-chloro-5-fluorobenzo[d]isoxazol-3-yl)-7-methoxy-4,4-dimethylchromane-8-sulfonamide] |
| 2 to 10 | COc1ccc2c(c1S(=O)(=O)Nc1noc3cc(Cn4cccn4)c(F)c(Cl)c13)OCCO2 [Compound 32, N-(6-((1H-Pyrazol-1-yl)methyl)-4-chloro-5-fluorobenzo[d]isoxazol-3-yl)-6-methoxy-2,3-dihydrobenzo[b][1,4]dioxine-5-sulfonamide] |
| 2 to 10 | COc1ccc2c(c1S(=O)(=O)Nc1noc3cc(Cn4cccn4)cc(Cl)c13)OCCO2 [Compound 34, N-(6-((1H-Pyrazol-1-yl)methyl)-4-chlorobenzo[d]isoxazol-3-yl)-6-methoxy-2,3-dihydrobenzo[b][1,4]dioxine-5-sulfonamide] |
| < 0.5 | COc1ccc2c(c1S(=O)(=O)Nc1noc3cc(Cn4cccn4)c(F)c(OC)c13)OCCC21CC1 [Compound 43, N-(6-((1H-Pyrazol-1-yl)methyl)-5-fluoro-4-methoxybenzo[d]isoxazol-3-yl)-7-methoxyspiro[chromane-4,1′-cyclopropane]-8-sulfonamide] |
| 0.5 to 2 | COc1ccc2c(c1S(=O)(=O)Nc1noc3cc(Cn4cccn4)c(F)c(Cl)c13)OCCC2=O [Compound 48, N-(6-((1H-Pyrazol-1-yl)methyl)-4-chloro-5-fluorobenzo[d]isoxazol-3-yl)-7-methoxy-4-oxochromane-8-sulfonamide] |
| 2 to 10 | COc1ccc2c(c1S(=O)(=O)Nc1noc3cc(Cn4cccn4)c(F)c(Cl)c13)OCCC21CC1 [Compound 49, N-(6-((1H-Pyrazol-1-yl)methyl)-4-chloro-5-fluorobenzo[d]isoxazol-3-yl)-7-methoxyspiro[chromane-4,1′-cyclopropane]-8-sulfonamide] |
